Patent publication US9730906B2, “α-derivatives of cis-monounsaturated fatty acids for use as medicines” (UNIVERSITAT DE LES ILLES BALEARS, priority 2008, dated 2017)

How the values were obtained:
[1] = Rat obesity induced by cafeteria diet, preventative pre-treatment (Table 3); format: in vivo, Wistar Kyoto rats; details: 300 mg/kg oral, after two weeks on cafeteria diet; obese control 308 ± 17, lean control 280 ± 16; * lower than obese controls, ‡ indistinguishable
Description: In a further experiment, the effect of various molecules at a single dose (600 mg/kg) was investigated. […] In this sense, modification on the α-carbon and the double bond in cis configuration are crucial elements for producing the therapeutic effect indicated above. […] Finally, the effect of α-derivatives of cis-monounsaturated fatty acids on the prevention of obesity was investigated. For this, a model of rat obesity induced by a cafeteria diet, where the hypercaloric food increases the weight of the animals very markedly, was used. There were various experimental groups (see Table 3), each of which consisted of 6 female Wistar Kyoto rats of 250-300 g in weight. All the animals received a standard diet for 2 weeks. In addition, 2 of the groups received an oral preventative pre-treatment of vehicle and the other groups received 300 mg/kg of the fatty acids indicated below. Afterwards, one of the control groups was maintained on a standard diet (lean control) and the other was fed on a cafeteria diet (obese control). The treated animal groups were fed on the cafeteria diet. Preventative pre-treatment was maintained for all the groups. After two weeks on these diets, the lean control group had increased their body weight by an average of 16±16 g, while the obese control group had increased their body weight by an average of 43±17 g (statistically significance difference, p<0.01).
The weight of treated animals was statistically less than the weight of obese control rats and statistically indistinguishable from that of lean control rats.

[2] = target: T1, cyclooxygenases-1 (COX-1) (Homo sapiens, UniProt P23219); test: COX-1 activity in U937 differentiated monocytes (Cayman COX-1 inhibitor screening system); format: cell-based; details: 250 μM, 6 hours; compared with fatty acids not of Formula I, p<0.05
T1 construct: endogenous in cells; host or cells: U937 differentiated monocytes
T1 sequence (P23219 24-599): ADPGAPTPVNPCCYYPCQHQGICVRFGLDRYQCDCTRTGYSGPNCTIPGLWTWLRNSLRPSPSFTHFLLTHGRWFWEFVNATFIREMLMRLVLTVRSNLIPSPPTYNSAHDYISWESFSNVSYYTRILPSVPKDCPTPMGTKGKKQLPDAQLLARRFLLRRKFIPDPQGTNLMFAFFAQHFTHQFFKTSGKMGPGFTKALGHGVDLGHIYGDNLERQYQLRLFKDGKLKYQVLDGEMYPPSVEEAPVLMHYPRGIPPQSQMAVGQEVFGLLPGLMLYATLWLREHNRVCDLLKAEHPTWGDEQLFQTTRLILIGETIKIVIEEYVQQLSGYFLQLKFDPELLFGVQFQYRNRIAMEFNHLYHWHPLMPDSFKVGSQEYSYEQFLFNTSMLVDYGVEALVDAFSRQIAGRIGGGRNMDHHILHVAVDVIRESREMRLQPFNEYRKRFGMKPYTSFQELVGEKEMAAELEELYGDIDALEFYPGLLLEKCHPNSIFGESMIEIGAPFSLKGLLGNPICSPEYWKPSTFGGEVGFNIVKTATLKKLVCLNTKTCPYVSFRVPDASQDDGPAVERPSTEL
Description: FIG. 19A. Effect of various fatty acids in the inhibition of the activity of cyclooxygenases-1 (COX-1) (Cayman COX-1 inhibitor screening system). […] Cell cultures (U937 differentiated monocytes) were treated with the fatty acids of the invention (250 μM, 6 hours).
(§1) In an additional study on the release of various proinflammatory cytokines (IL-1b, IL-6, IL-8, IL-10) and TNF-α in U937 monocytes stimulated with bacterial lipopolysaccharide (LPS), a marked reduction in the levels of these molecules was observed after treatments with OHHD at a concentration of 250 μM and 72 h incubation (Table 4). The effect of the α-derivatives of cis-monounsaturated fatty acids (250 μM, 6 h) on the activity and expression of the COX-1 and COX-2 cyclooxygenases was investigated in the same system.

[3] = tested on: A549 cells of human lung adenocarcinoma; test: Prevention of tumour development in nude mice injected with A549 cells; format: in vivo; details: 400 mg/kg per day oral, 2 weeks before and one month after A549 injection, compared with fatty acids not of Formula I, p<0.05
Description: FIG. 2. Preventative effect of various fatty acids against tumour development. […] Animals received treatment before injection of tumour cells and the treatment was subsequently maintained. Animals of the control group were not treated and the volume of their tumours was taken as the reference value (100%).
To determine whether the fatty acids of the invention have applications in the prevention of the development of tumour processes, an animal cancer model was used. This model consisted of immune-deprived animals ([Crl:Nu(Ico)-Fox 1] nude mice in which non-microcytic human lung cancer cells were injected (5×10^6 A549 cells per animal). The control group (infected with cancer cells but untreated) started to develop tumours that were visible after a few days. The sizes of the tumours were measured for the first time at 10 days after implanting the tumour and measurements continued for up to 31 days after the implantation with a digital calliper. The volume of the tumours was calculated with the following equation: v=w^2×l/2 where v is the volume of the tumour, w is its width and l is the length. Preventative treatments against development of the cancer were applied. To carry out these treatments, 400 mg/kg were administered per day for 2 weeks before the injection of tumour cells. This treatment was continued for one month after the implantation of the tumour cells and the volume of the tumours in the animals was measured. Each experimental group was composed of 8 animals. Oral administration of α-derivatives of cis-monounsaturated fatty acids prevented cancer development (A549 cells of human lung adenocarcinoma) (FIG. 2). […] Therefore it was concluded that the introduction of a double bond in the cis configuration in the structure of the fatty acid is a critical factor in the prevention and treatment by fatty acids of cancer development.

cyclooxygenase-2 (COX-2) = test: Cellular concentration of COX-2 in U937 differentiated monocytes (immunoblot); format: cell-based, human; details: 250 μM, 6 hours; compared with fatty acids not of Formula I, p<0.05
Description: FIG. 19B. Effect of various fatty acids in the inhibition (concentration of protein) of cyclooxygenase-2 (immunoblot of COX-2). […] Cell cultures (U937 differentiated monocytes) were treated with the fatty acids of the invention (250 μM, 6 hours).
as §1

A549 cells = test: Growth/viability of A549 lung cancer cells in culture (cell count); format: cell-based, human; details: Doses of 200 to 400 μM, A549
Description: FIG. 3A. Cancer cells (A549) were treated with various concentrations of OHOD and MOD11 to determine whether the effect was dependent on the concentration. […] These cells were treated with different concentrations (0-400 μM) of OHOD and MOD11 and the number of cells was determined by flow cytometry.
FIG. 3B. Cancer cells (A549) were treated with compounds indicated on the horizontal axis for 48 hours at 150 μM. Then, the cells were counted and their number and percent of untreated (control) represented on the vertical axis.
Also, a series of α-derivatives of cis-monounsaturated fatty acids were used to investigate their effectiveness in cancer treatment. Two types of experiment were performed. Firstly, the dependency of the anti-tumour effect on concentration was investigated. To perform these experiments, human lung cancer cells (A549) were cultivated in RPMI medium, supplemented with 10% foetal bovine […], 10 mM Hepes (pH 7.4), 2 mM glutamine, 2 g/l bicarbonate, 1 g/l glucose, 100 units/ml penicillin, 0.1 mg/ml streptomycin, 0.25 μg/ml Amphotericin B, at 37° C. and in the presence of 5% CO2. In a first experimental series, these cells were treated with various concentrations (0-400 μM) of OHOD and MOD11 and the number of cells was determined by flow cytometry (FIG. 3A). […] In a second series, the anti-tumour effectiveness on A549 lung cancer cells was investigated at a single concentration (150 μM) and a time of 48 hours (FIG. 3B). […] Obviously, among the previous molecules, some lacked both modifications on the α-carbon and the double bond in cis configuration (EO, HDO, ODO) and had no therapeutic effect. […]

Row | SMILES | Final weight [1] | inhibition of COX-1 activity (% of control) [2] | tumour volume (prevention of tumour development) [3] | cellular concentration of COX-2 (% of control) (cyclooxygenase-2 (COX-2)) | effect on tumour cells at 200 to 400 μM (A549 cells)
1 | CCCCCCCC/C=C\CCCCCCC(F)C(=O)O (stereo not drawn) [FOD, α-Fluoro-cis-Δ9-octadecenoic] | 279 ± 13* g | more significant effect | more significant effect | more significant effect | 
2 | CCCCCCCC/C=C\CCCCCCCCCCC(O)C(=O)O (stereo not drawn) [OHDE, α-Hydroxy-cis-Δ13-docosenoic] | 273 ± 15* g | more significant effect | more significant effect | more significant effect | 
3 | CCCCCCCC/C=C\CCCCCCC(C(=O)O)C(F)(F)F (stereo not drawn) [TFMOD, α-Trifluoromethyl-cis-Δ9-octadecenoic] | 278 ± 14* g | more significant effect | more significant effect | more significant effect | 
4 | CCCCCC/C=C\CCCCCCCCC(O)C(=O)O (stereo not drawn) [OHOD11, α-Hydroxy-cis-Δ11-octadecenoic] | 269 ± 12* g | more significant effect | more significant effect | more significant effect | 
5 | CCCCCCCC/C=C\CCCCCCC(N)C(=O)O (stereo not drawn) [AOD, α-Amino-cis-Δ9-octadecenoic] | 272 ± 15* g | more significant effect | more significant effect | more significant effect | 
6 | CCCCCC/C=C\CCCCCCCCC(C)C(=O)O (stereo not drawn) [MOD11, α-Methyl-cis-Δ11-octadecenoic] | 274 ± 18* g | more significant effect | more significant effect | more significant effect | total elimination of tumour cells
7 | CCCCCCCC/C=C\CCCCCCC(C)C(=O)O (stereo not drawn) [MOD, α-Methyl-cis-Δ9-octadecenoic] | 268 ± 12* g | more significant effect | more significant effect | more significant effect | 
8 | CCCCCCCC/C=C\CCCCCCCCC(O)C(=O)O (stereo not drawn) [OHEE, α-Hydroxy-cis-Δ11-eicosenoic] | 264 ± 11* g | more significant effect | more significant effect | more significant effect | 
9 | CCCCCCC/C=C\CCCCCCCC(S)C(=O)O (stereo not drawn) [SHOD, α-Mercapto-cis-Δ10-octadecenoic] | 269 ± 16* g | more significant effect | more significant effect | more significant effect | 
